Marks after values point to notes of the source that are not given here.
Key:
[1] = biological target: T1, VEGF (Homo sapiens, UniProt P15692); assay: SPR based solution affinity assay, growth factor binding (VEGF); settings: heparin-coated sensorchip, HBS-EP buffer, 25° C.
T1 sequence (P15692 27-191 isoform P15692-4): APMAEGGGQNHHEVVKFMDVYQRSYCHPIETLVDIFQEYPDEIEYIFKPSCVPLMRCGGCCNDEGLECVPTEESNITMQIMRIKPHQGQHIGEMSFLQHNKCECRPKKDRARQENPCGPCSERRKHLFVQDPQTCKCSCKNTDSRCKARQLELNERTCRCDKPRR
Procedure: (§1) Binding affinities of ligands for the growth factors FGF-1, FGF-2 and VEGF were measured using a surface plasmon resonance (SPR) based solution affinity assay. The principle of the assay is that heparin immobilised on a sensorchip surface distinguishes between free and bound growth factor in an equilibrated solution of the growth factor and a ligand. Upon injection of the solution, the free growth factor binds to the immobilised heparin, is detected as an increase in the SPR response and its concentration thus determined. A decrease in the free growth factor concentration as a function of the ligand concentration allows for the calculation of the dissociation constant, Kd. It is important to note that ligand binding to the growth factors can only be detected when the interaction involves the HS binding site, thus eliminating the chance of evaluating non-specific binding to other sites on the protein. A 1:1 stoichiometry has been assumed for all protein:ligand interactions.
(§2) For the testing of growth factor binding activity, heparin-coated sensorchips were used. Their preparation, via immobilisation of biotinylated BSA-heparin on a streptavidin-coated sensorchip, has been described.[5] Heparin has also been immobilised via aldehyde coupling using either adipic acid dihydrazide or 1,4-diaminobutane. […] Ligands binding to FGF-1 and VEGF were measured in HBS-EP buffer (10 mM HEPES, pH 7.4, 150 mM NaCl, 3.0 mM EDTA and 0.005% (v/v) polysorbate 20), while binding to FGF-2 was measured in HBS-EP buffer containing 0.3 M NaCl.[5] […] For each assay mixture, 50-200 μL of solution was injected at 5-40 μL/min and the relative binding response measured. […]
(§3) Sensorgram data were analysed using the BIAevaluation software (BIAcore). […]
(§4) [formula] and the binding equation[5] can be expressed as
(§5) The Kd values given are the values fit, using the binding equation, to a plot of [P] versus [L]total. Where Kd values were measured in duplicate, the values represent the average of the duplicate measurements. […]

[2] = biological target: FGF-1 (Homo sapiens, UniProt P05230); assay: SPR based solution affinity assay, growth factor binding (FGF-1); settings: heparin-coated sensorchip, HBS-EP buffer, 25° C.; read-out: Kd aFGF
Procedure: as §1, §2, §3, §4, §5

[3] = biological target: FGF-2 (Homo sapiens, UniProt P09038); assay: SPR based solution affinity assay, growth factor binding (FGF-2); settings: heparin-coated sensorchip, HBS-EP buffer containing 0.3 M NaCl, 25° C.; read-out: Kd bFGF
Procedure: as §1, §2, §3, §4, §5

[4] = biological target: T2, heparanase (Homo sapiens, UniProt Q9Y251); assay: Heparanase inhibition, Microcon ultrafiltration assay; type: biochemical; settings: 3H labelled HS, pH 5.0, 22° C., 2.5 h
T2 sequence (Q9Y251 158-543 limits assumed): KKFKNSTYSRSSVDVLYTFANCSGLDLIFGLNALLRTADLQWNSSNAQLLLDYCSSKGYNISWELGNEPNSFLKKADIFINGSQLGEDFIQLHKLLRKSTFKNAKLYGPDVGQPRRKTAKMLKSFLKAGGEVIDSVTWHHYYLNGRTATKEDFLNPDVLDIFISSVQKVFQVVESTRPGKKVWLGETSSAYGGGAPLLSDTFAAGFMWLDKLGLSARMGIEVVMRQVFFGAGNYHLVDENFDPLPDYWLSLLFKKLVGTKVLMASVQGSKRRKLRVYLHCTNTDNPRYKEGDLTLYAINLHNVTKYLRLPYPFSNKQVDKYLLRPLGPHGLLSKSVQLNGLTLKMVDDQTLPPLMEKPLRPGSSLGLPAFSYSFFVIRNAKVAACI
T2 sequence (Q9Y251 36-109 limits assumed): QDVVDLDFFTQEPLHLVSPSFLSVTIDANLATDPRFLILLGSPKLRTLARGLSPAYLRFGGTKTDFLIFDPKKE
Procedure: The heparanase assays were performed using a Microcon ultrafiltration assay. The assays rely on the principle of physically separating heparan sulfate (HS) that has been digested by heparanase from native HS to determine heparanase activity. The assay uses ultrafiltration devices (Microcon YM-10) to separate the smaller heparanase-cleaved HS fragments from native HS.
A reaction was set up with a volume of 90 μL, • 40 mM acetate buffer (pH 5.0) • 0.1 mg/mL BSA • 90 ng heparanase • 2.5 μM ^3H labelled HS • various concentrations of inhibitors.
The reactions were set up with all components except the ^3H labelled HS and allowed to equilibrate for 10 min at 22° C. The assays were then initiated by adding the HS and immediately 20 μL was taken, mixed with 80 μL of 10 mM phosphate (pH 7.0) and the 100 μL transferred to a Microcon YM-10 concentrator which was then centrifuged at approximately 14000 g for 5 min. The solution that passed through the membrane (filtrate) was retained. This sample was considered the time=0 sample. The assays (now 70 μL in volume) were allowed to react at 22° C. for 2.5 h and then the filtration step was repeated for three aliquots of 20 μL from each assay.
The time=0 filtrate and the three 2.5 h filtrate samples were counted for ^3H. The difference between the time=0 and the averaged 2.5 h samples gave the amount of heparanase activity. All inhibition assays were run with a heparanase standard assay which was identical to the assay composition above except no inhibitor was present and the amount of heparanase inhibition in the other assays determined by comparison with this standard.

[5] = test system: herpes simplex virus (HSV-1) KOS321 strain; assay: Antiviral assay, HSV-1 infectivity (plaque forming units); type: cell-based; settings: African green monkey kidney cells; virus pre-incubated with compound 10 min
Source text: (§6) In panel A, the results are expressed as a percentage of the number of viral plaque forming units (PFU) formed in cells infected with the compound-treated virions relative to mock-treated controls. In panel B, the results are expressed as a percentage of the average area of 20 viral plaques formed in the continuous presence of compound relative to mock-treated control cells. Monolayer cultures of African green monkey kidney cells[35] and herpes simplex virus (HSV-1) KOS321 strain[36] were used throughout. The antiviral assays on the compounds were performed as described by Nyberg et al.[13] Briefly, the effects of the compounds on the infection of cells by exogenously added virus were tested by mixing serial fivefold dilutions of compound (at 0.032-20 μM) with approximately 200 plaque forming units of the virus. Following incubation of the virus and compound for 10 min at room temperature, the mixture was added to the cells and left on the cell monolayer for 2 h at 37° C. Subsequently, the inoculum was aspirated and replaced with an overlay medium of 1% methylcellulose solution in Eagle's minimum essential medium (EMEM). The viral plaques that developed after incubation of cells for 3 days at 37° C. were stained with 1% crystal violet solution and counted. The effects of the compounds on cell-to-cell spread of HSV-1 were tested by adding serial fivefold dilutions of compound (at 0.032-20 μM) in the serum-free overlay medium to cells after their infection with HSV-1. After incubation of the compound with the cells for 3 days at 37° C., the images of 20 plaques were captured and subjected to area determination using IM500 software (Leica).

[6] = test system: herpes simplex virus (HSV-1) KOS321 strain; assay: Antiviral assay, HSV-1 cell-to-cell spread (plaque area); type: cell-based; settings: African green monkey kidney cells; compound in overlay medium after infection, 3 days
Source text: as §6

[7] = Pharmacokinetic studies of 35S-labelled compounds after iv administration; settings: rat; for Urinary Recovery: urine collected 0-48 h
Procedure: The polyol precursors for PG500, 501, 503, 504, 506 and PI-88 (2 mg of each) were desiccated under vacuum over P2O5 for 3 days. Into each vial was syringed 50 μL of a stock solution of 1.77 mg (2.0 mCi) of ^35SO3.pyridine complex and 2 mg SO3.Me3N in 300 μL of anhydrous DMF (Aldrich, redried over freshly ignited 3 A molecular sieves). A further 600 μL of anhydrous DMF was added to the SO3 vial and was distributed to each sample vial. The samples were heated to 60° for 66 hr. SO3.Me3N (14 mg in 300 μL anhydrous DMF) was added to each vessel and the resulting solutions were heated to 60° overnight. The vials were cooled to room temperature and stored at −80° C. awaiting purification.
Each sample was quenched by addition of Na2CO3 (sat. aqu. adjusted to pH 8-9), evaporated to dryness and subjected to SEC (Biogel P2, 2.6×90 cm, flow rate 30 mL/hr, 5 min/fraction). Fractions containing desired material were detected using a G-M counter and DMB test followed by CE.
Male Sprague Dawley rats (250-350 g) were used. The animals were allowed free access to food and water before and during the experiments, during which they were maintained unrestrained in metabolism cages. Rats were anaesthetized with isoflurane (Forthane®). A catheter was inserted in the external jugular vein via an incision in the neck, and was passed under the skin to a second incision in the skin of the back (midline vicinity of the scapulae). This was then exteriorized with the protection of a light metal spring. The incision was closed and the spring fixed to the skin with Michel sutures so that the rats had full range of movement. The animals were carefully monitored during recovery (1-4 h).
All doses were administered as a bolus intravenous injection of 2.5 mg/kg in a dose volume of 2 mL/kg. The total amount of radioactivity administered to each rat was 0.5-10 μCi. The dose level used in this study is 10-fold lower than the no-effect dose previously established for acute toxicity of PI-88. Blood samples (˜250 μL) were collected predose and at 5, 15, 30, 45 min, and 1, 1.5, 2, 4, 8, 12, 24, 36 and 48 h after dosing. The blood samples were immediately centrifuged and the plasma collected. At completion of the experiments, the animals were killed by a lethal overdose of IV pentobarbitone anaesthetic (Nembutal®). Urine was collected from each animal at intervals of 0-12 h, 12-24 h and 24-48 h after dosing. Cage washings (˜15 mL of deionised water) were also collected. At the end of the experiment, bladder contents were aspirated from each animal and added to the 24-48 h voidings. Feces were collected over the same time intervals as the urine.
Aliquots of plasma (100 μL), urine and cage washings (500 μL) were transferred directly to 6 mL polypropylene scintillation vials for determination of radioactivity. Feces collected during each time period (from one animal dosed with each compound) were weighed and homogenised in 4 volumes of deionised water using a mechanical homogeniser. Approximately 1 g (accurately weighed) of this slurry was transferred to a 20 mL glass scintillation vial, 2 mL of tissue solubiliser added and the vials capped and incubated at 60° C. for at least 24 h. Radioactivity was measured following mixing of samples with Packard Ultima Gold liquid scintillation counting cocktail (2.0 mL for plasma and dose, 5.0 mL for urine and cage washings, 10 mL for feces). Counting was conducted on a Packard Tr-Carb liquid scintillation counter. Any result less than three times the background was considered less than the lower limit of quantitation not used in calculations. Plasma, urine and cage washings were counted in triplicate within 5 days of collection and were not corrected for radiochemical decay. Feces were processed as a batch at the completion of the study and the counts from these samples were corrected for radiochemical decay.

[8] = iv bolus 2.5 mg/kg, plasma radioactivity

FGF-1, sequence (P05230 whole entry, species assumed): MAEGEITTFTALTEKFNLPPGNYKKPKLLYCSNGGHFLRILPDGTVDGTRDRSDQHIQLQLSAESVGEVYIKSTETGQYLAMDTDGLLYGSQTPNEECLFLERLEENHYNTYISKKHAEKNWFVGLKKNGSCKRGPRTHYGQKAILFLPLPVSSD
FGF-2, sequence (P09038 143-288, species assumed): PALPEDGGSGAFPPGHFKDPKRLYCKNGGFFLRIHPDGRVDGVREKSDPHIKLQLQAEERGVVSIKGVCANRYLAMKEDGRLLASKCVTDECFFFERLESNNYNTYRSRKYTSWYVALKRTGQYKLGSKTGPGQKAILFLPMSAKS

Row | Compound | IC50 [6] [µM] | Cl* (apparent) ([7]; iv bolus 2.5 mg/kg) | Vd* (apparent) ([7]; iv bolus 2.5 mg/kg) | k* (apparent) ([7]; iv bolus 2.5 mg/kg) | C0 [7, 8] | Urinary Recovery ([7]; iv bolus 2.5 mg/kg) | also measured
1 | [N-]=[N+]=NC1OC(COS(=O)(=O)O)C(OC2OC(COS(=O)(=O)O)C(OC3OC(COS(=O)(=O)O)C(OC4OC(COS(=O)(=O)O)C(OC5OC(COS(=O)(=O)O)C(OC6OC(COS(=O)(=O)O)C(OS(=O)(=O)O)C(OS(=O)(=O)O)C6OS(=O)(=O)O)C(OS(=O)(=O)O)C5OS(=O)(=O)O)C(OS(=O)(=O)O)C4OS(=O)(=O)O)C(OS(=O)(=O)O)C3OS(=O)(=O)O)C(OS(=O)(=O)O)C2OS(=O)(=O)O)C(OS(=O)(=O)O)C1OS(=O)(=O)O (stereo not drawn) [PG505] |  |  |  |  |  |  | Kd [1]: 4.8 ± 0.4 nM; Kd [2]: 1.96 ± 0.3 nM; Kd [3]: 137 ± 12 nM; IC50 [4]: 1040 ± 147 nM
2 | PEG2000 Polysulfate [PG506] | 7 | 404 ± 59.5^ mL/h/kg | 44.5 ± 4.5^ mL | 1.17 ± 0.024^ h^−1 | 17.1 ± 1.8^ μg-eq/mL | 79.1 ± 3.6^ % dose | IC50 [5]: 10 µM; AUC0-12 h, calculated over 0-8 h post dose interval only ([7]; iv bolus 2.5 mg/kg, 0-8 h post dose interval only): 6.2 ± 1.0^a μg-eq/h · mL
3 | PEG5000 Polysulfate [PG504] | 11 | 172 ± 11.8 mL/h/kg | 24.9 ± 2.9 mL | 0.247 ± 0.003 h⁻¹ | 30.5 ± 2.3 μg-eq/mL | 66.5 ± 9.4 % dose | AUC0-12 h [7, 8]: 14.7 ± 1.2 μg-eq/h · mL
4 | PI-88 [reference compound] |  |  |  |  |  |  | AUC0-12 h ([7]; in vivo, iv, 2.5 mg/kg): 9.6 ± 1.9 μg-eq/h · mL; C0 ([7]; in vivo, iv, 2.5 mg/kg): 17.7 ± 2.23 μg-eq/mL; Cl* (apparent) ([7]; in vivo, iv, 2.5 mg/kg): 250 ± 27.6 mL/h/kg; Vd* (apparent) ([7]; in vivo, iv, 2.5 mg/kg): 43.1 ± 1.9 mL; t1/2* (apparent) ([7]; in vivo, iv, 2.5 mg/kg): 49.8 ± 5.4 min
